ChEMBL document CHEMBL4311942, “Design of Trp-Rich Dodecapeptides with Broad-Spectrum Antimicrobial Potency and Membrane-Disruptive Mechanism” (J Med Chem, 2019)
In brackets after ≈: the same amount, converted by molar mass. Where a SMILES comes first, the peptide text is derived from it.

Assays:
Escherichia coli [1] = experiment: Antibacterial activity against Escherichia coli ATCC 25922 incubated for 2 hrs in presence of sodium phosphate buffer at pH 4 by broth microdilution method; format: functional; details: ATCC 25922, 2 h
Escherichia coli [2] = experiment: Antibacterial activity against Escherichia coli ATCC 25922 in presence of MgCl2 by broth microdilution method; format: functional
Staphylococcus aureus [3] = experiment: Antibacterial activity against Staphylococcus aureus ATCC 29213 in presence of CaCl2 by broth microdilution method; format: functional
Escherichia coli [4] = experiment: Antibacterial activity against Escherichia coli ATCC 25922 incubated for 2 hrs in presence of sodium phosphate buffer at pH 2 by broth microdilution method; format: functional; details: ATCC 25922, 2 h
Escherichia coli [5] = experiment: Antibacterial activity against Escherichia coli ATCC 25922 in presence of H202 by broth microdilution method; format: functional
Staphylococcus aureus [6] = experiment: Antibacterial activity against Staphylococcus aureus ATCC 29213 incubated for 2 hrs in presence of sodium phosphate buffer at pH 2 by broth microdilution method; format: functional; details: ATCC 29213, 2 h
Escherichia coli [7] = experiment: Antibacterial activity against Escherichia coli ATCC 25922 in presence of CaCl2 by broth microdilution method; format: functional
Staphylococcus aureus [8] = experiment: Antibacterial activity against Staphylococcus aureus ATCC 29213 in presence of ZnCl2 by broth microdilution method; format: functional
Staphylococcus aureus [9] = experiment: Antibacterial activity against Staphylococcus aureus ATCC 29213 in presence of NaBH4 by broth microdilution method; format: functional
Staphylococcus aureus [10] = experiment: Antibacterial activity against Staphylococcus aureus ATCC 29213 in presence of MgCl2 by broth microdilution method; format: functional
Staphylococcus aureus [11] = experiment: Antibacterial activity against Staphylococcus aureus ATCC 29213 in presence of NaCl by broth microdilution method; format: functional
Escherichia coli [12] = experiment: Antibacterial activity against Escherichia coli ATCC 25922 using preheated compound at 100 degreeC for 1 hr by broth microdilution method; format: functional; details: ATCC 25922, 1 h
Staphylococcus aureus [13] = experiment: Antibacterial activity against Staphylococcus aureus ATCC 29213 incubated for 18 to 24 hrs by broth microdilution method; format: functional
Salmonella typhimurium = experiment: Antibacterial activity against Salmonella enterica serovar typhimurium C77-31 incubated for 18 to 24 hrs by broth microdilution method; format: functional, Salmonella enterica subsp. enterica serovar Typhimurium
Erythrocyte = experiment: Haemolytic activity in human erythrocytes assessed as lowest concentration causing 5% hemolysis after 1 hr; format: ADME, cell-based
Escherichia coli [14] = experiment: Antibacterial activity against Escherichia coli ATCC 25922 in presence of FeCl3 by broth microdilution method; format: functional
Staphylococcus aureus [15] = experiment: Antibacterial activity against Staphylococcus aureus ATCC 29213 in presence of 25% serum by broth microdilution method; format: functional
Staphylococcus aureus [16] = experiment: Antibacterial activity against Staphylococcus aureus ATCC 29213 incubated for 2 hrs in presence of sodium phosphate buffer at pH 4 by broth microdilution method; format: functional; details: ATCC 29213, 2 h
Staphylococcus aureus [17] = experiment: Antibacterial activity against Staphylococcus aureus ATCC 29213 in presence of KCl by broth microdilution method; format: functional
Staphylococcus aureus [18] = experiment: Antibacterial activity against Staphylococcus aureus ATCC 29213 in presence of NH4Cl by broth microdilution method; format: functional
Escherichia coli [19] = experiment: Antibacterial activity against Escherichia coli ATCC 25922 incubated for 2 hrs in presence of sodium phosphate buffer at pH 12 by broth microdilution method; format: functional; details: ATCC 25922, 2 h
Staphylococcus aureus [20] = experiment: Antibacterial activity against Staphylococcus aureus ATCC 25923 incubated for 18 to 24 hrs by broth microdilution method; format: functional
[21] = Therapeutic index, ratio of MHC for human RBC to geometric mean of peptide MIC for Escherichia coli ATCC 25922; format: toxicity; details: pooled result: one value given for 6 cell lines, strains, targets or settings, read-out: TI
Staphylococcus aureus [22] = experiment: Antibacterial activity against Staphylococcus aureus ATCC 29213 incubated for 2 hrs in presence of sodium phosphate buffer at pH 12 by broth microdilution method; format: functional; details: ATCC 29213, 2 h
Escherichia coli [23] = experiment: Antibacterial activity against Escherichia coli ATCC 25922 in presence of NaCl by broth microdilution method; format: functional
Escherichia coli [24] = experiment: Antibacterial activity against Escherichia coli ATCC 25922 in presence of ZnCl2 by broth microdilution method; format: functional
Escherichia coli [25] = experiment: Antibacterial activity against Escherichia coli ATCC 25922 incubated for 18 to 24 hrs by broth microdilution method; format: functional
Escherichia coli [26] = experiment: Antibacterial activity against Escherichia coli ATCC 25922 incubated for 2 hrs in presence of sodium phosphate buffer at pH 10 by broth microdilution method; format: functional; details: ATCC 25922, 2 h
Staphylococcus aureus [27] = experiment: Antibacterial activity against Staphylococcus aureus ATCC 29213 incubated for 2 hrs in presence of sodium phosphate buffer at pH 10 by broth microdilution method; format: functional; details: ATCC 29213, 2 h
[28] = (§1) Cytotoxicity against mouse RAW264.7 cells assessed as cell survival at <= 32 uM after 24 hrs by MTT assay relative to control; format: cell-based; details: RAW264.7 cells, up to 32 µM, read-out: Activity
Escherichia coli [29] = experiment: Antibacterial activity against Escherichia coli ATCC 25922 in presence of 12.5% serum by broth microdilution method; format: functional
Escherichia coli [30] = experiment: Antibacterial activity against Escherichia coli UB1005 incubated for 18 to 24 hrs by broth microdilution method; format: functional
Staphylococcus aureus [31] = experiment: Antibacterial activity against Staphylococcus aureus ATCC 29213 in presence of FeCl3 by broth microdilution method; format: functional
[32] = test system: Staphylococcus epidermidis; experiment: Antibacterial activity against Staphylococcus epidermidis ATCC 12228 incubated for 18 to 24 hrs by broth microdilution method; format: functional
Escherichia coli [33] = experiment: Antibacterial activity against Escherichia coli ATCC 25922 in presence of NaBH4 by broth microdilution method; format: functional
Escherichia coli [34] = experiment: Antibacterial activity against Escherichia coli ATCC 25922 in presence of 25% serum by broth microdilution method; format: functional
Escherichia coli [35] = experiment: Antibacterial activity against Escherichia coli ATCC 25922 in presence of NH4Cl by broth microdilution method; format: functional
Staphylococcus aureus [36] = experiment: Antibacterial activity against Staphylococcus aureus ATCC 29213 in presence of H202 by broth microdilution method; format: functional
Staphylococcus aureus [37] = experiment: Antibacterial activity against Staphylococcus aureus ATCC 29213 in presence of 12.5% serum by broth microdilution method; format: functional
Staphylococcus aureus [38] = experiment: Antibacterial activity against Staphylococcus aureus ATCC 29213 using preheated compound at 100 degreeC for 1 hr by broth microdilution method; format: functional; details: ATCC 29213, 1 h
Escherichia coli [39] = experiment: Antibacterial activity against Escherichia coli ATCC 25922 in presence of KCl by broth microdilution method; format: functional
Escherichia coli [40] = experiment: Antibacterial activity against Escherichia coli ATCC 25922 in presence of 50% serum by broth microdilution method; format: functional
Staphylococcus aureus [41] = experiment: Antibacterial activity against Staphylococcus aureus ATCC 29213 in presence of 50% serum by broth microdilution method; format: functional
RAW264.7 = experiment: as §1; format: cell-based; details: raw264.7, 24 h

## CC(C)C[C@H](NC(=O)[C@H](CCCNC(=N)N)NC(=O)[C@H](CCCCN)NC(=O)[C@H](CCCNC(=N)N)NC(=O)[C@@H](NC(=O)[C@H](CCCCN)NC(=O)[C@H](CCCCN)NC(=O)[C@H](CCCNC(=N)N)NC(=O)[C@H](CC(C)C)NC(=O)[C@H](CCCNC(=N)N)NC(=O)[C@@H](N)CCCNC(=N)N)[C@@H](C)O)C(=O)N[C@@H](CCCCN)C(N)=O (H-RRLRKKTRKRLK-NH2)
Escherichia coli [1]
  MIC: > 128 µM
Escherichia coli [2]
  MIC: > 128 µM
Staphylococcus aureus [3]
  MIC: > 128 µM
Escherichia coli [4]
  MIC: > 128 µM
Escherichia coli [5]
  MIC: > 128 µM
Staphylococcus aureus [6]
  MIC: > 128 µM
Escherichia coli [7]
  MIC: > 128 µM
Staphylococcus aureus [8]
  MIC: > 128 µM
Staphylococcus aureus [9]
  MIC: > 128 µM
Staphylococcus aureus [10]
  MIC: > 128 µM
Staphylococcus aureus [11]
  MIC: > 128 µM
Escherichia coli [12]
  MIC: > 128 µM
Staphylococcus aureus [13]
  MIC: > 128 µM
Salmonella typhimurium
  MIC: > 128 µM
Erythrocyte
  MHC: > 128 µM
Escherichia coli [14]
  MIC: > 128 µM
Staphylococcus aureus [15]
  MIC: > 128 µM
Staphylococcus aureus [16]
  MIC: > 128 µM
Staphylococcus aureus [17]
  MIC: > 128 µM
Staphylococcus aureus [18]
  MIC: > 128 µM
Escherichia coli [19]
  MIC: > 128 µM
Staphylococcus aureus [20]
  MIC: > 128 µM
[21]
  selectivity ratio: 1.26
Staphylococcus aureus [22]
  MIC: > 128 µM
Escherichia coli [23]
  MIC: > 128 µM
Escherichia coli [24]
  MIC: > 128 µM
Escherichia coli [25]
  MIC: > 128 µM
Escherichia coli [26]
  MIC: > 128 µM
Staphylococcus aureus [27]
  MIC: > 128 µM
[28]
  viability at 24 h: ≥ 70%
Escherichia coli [29]
  MIC: > 128 µM
Escherichia coli [30]
  MIC: 64 µM (≈ 105 µg/mL)
Staphylococcus aureus [31]
  MIC: > 128 µM
[32]
  MIC: > 128 µM
Escherichia coli [33]
  MIC: > 128 µM
Escherichia coli [34]
  MIC: > 128 µM
Escherichia coli [35]
  MIC: > 128 µM
Staphylococcus aureus [36]
  MIC: > 128 µM
Staphylococcus aureus [37]
  MIC: > 128 µM
Staphylococcus aureus [38]
  MIC: > 128 µM
Escherichia coli [39]
  MIC: > 128 µM
Escherichia coli [40]
  MIC: > 128 µM
Staphylococcus aureus [41]
  MIC: > 128 µM

## CC(C)C[C@H](NC(=O)[C@H](Cc1c[nH]c2ccccc12)NC(=O)[C@H](CCCCN)NC(=O)[C@H](CCCNC(=N)N)NC(=O)[C@@H](NC(=O)[C@H](Cc1c[nH]c2ccccc12)NC(=O)[C@H](CCCCN)NC(=O)[C@H](CCCNC(=N)N)NC(=O)[C@H](CC(C)C)NC(=O)[C@H](Cc1c[nH]c2ccccc12)NC(=O)[C@@H](N)CCCNC(=N)N)[C@@H](C)O)C(=O)N[C@@H](CCCCN)C(N)=O (H-RWLRKWTRKWLK-NH2)
Staphylococcus aureus [13]
  MIC: 8 µM (≈ 14 µg/mL)
Salmonella typhimurium
  MIC: 16 µM (≈ 28.1 µg/mL)
Erythrocyte
  MHC: > 128 µM
Staphylococcus aureus [20]
  MIC: 16 µM (≈ 28.1 µg/mL)
[21]
  selectivity ratio: 32
Escherichia coli [25]
  MIC: 4 µM (≈ 7.02 µg/mL)
RAW264.7
  Activity: Non-Toxic
Escherichia coli [30]
  MIC: 4 µM (≈ 7.02 µg/mL)
[32]
  MIC: 8 µM (≈ 14 µg/mL)
